From patent publication US20250041307A1, “Uses of Bicyclic Compounds for the Treatment of Diseases” (Athira Pharma, Inc., priority 2021, published 2025)
One block for each molecule: values may come before it.

What was measured:
[1] = Turbidimetric solubility assay; format: physicochemical; conditions: PBS (diluted from 10 mM DMSO stock), aqueous buffer, kinetic from dmso stock, 37° C. for 2 hours, dilution series 3 to 300 μM
Procedure: Aqueous solubility is a critical drug property that helps to predict bioavailability. Generally, compounds with aqueous solubility <100 μg/ml are poor drugs.
To assess a compound's solubility by turbidity, test compounds were first dissolved in organic solvent (DMSO) at a concentration of 10 mM. This compound solution was then diluted in aqueous solvent (PBS) in a dilution series from 3 to 300 μM in a 96-well assay plate. Solutions were incubated at 37° C. for 2 hours.
In wells with test compounds over their solubility limit, the compound will precipitate, effectively blocking the passage of light and thus increasing the absorbance signal of UV light at a wavelength of 620 nm. Compounds were considered insoluble at a tested concentration if turbidity raises the absorbance more than 10% above control reads.

HGF/MET system = assay: Phospho-MET ELISA; format: cell-based; set-up: key: − indicates that the compound failed to significantly augment MET phosphorylation; + indicates maximum potency at or above 100 nM; ++ indicates maximum potency at or above 10 nM; +++ indicates maximum potency at or above 1 nM; ++++ indicates maximum potency at or above 0.1 nM; conditions: HEK293 cells; with 1 ng/mL recombinant HGF; 15 minutes; augmentation of MET phosphorylation (pMET ELISA)
Procedure: Compounds were screened for potency towards the HGF/MET system using phospho-MET (pMET) ELISA kits (Cell Signaling). pMET levels were detected in samples having low (1 ng/mL) and high (10 ng/mL) concentrations of HGF.
HEK293 cells were prepared by passage into 6-well multi-plates and grown at 37° C. at 5% CO2 in DMEM+10% FBS until approximately 90% confluent. Cells were then starved for at least 8 hours in serum-free growth media.
Exemplary compounds were prepared in DMEM+0.1% FBS, diluted and added to treatment media with 1 ng/mL recombinant HGF protein (R&D Systems). Cells were incubated in triplicate at 37° C. and 5% CO2 for 15 minutes. Samples were then treated with 180 μL ice-cold RIPA (radioimmunoprecipitation assay) buffer and cells were lysed on ice for 15 minutes. Lysates were cleared by centrifugation at 16,000-g for 15 minutes and the supernatant was retained. Samples were normalized using a BCA assay of lysates to determine protein concentrations across the samples.
Between 50 and 100 μg total protein lysate was loaded into ELISA wells in pMET Sandwich ELISA kit (Cell Signaling Catalog #7227C), ensuring equal protein load in each well. The ELISA was processed according to manufacturer's instructions. After color developed, absorbance was read on an optical plate reader at 450 nm.
Potency measurements were determined using peak efficacy by scaling test compound dose treatments along a scale of 1-10 between 1 ng/mL and 10 ng/mL HGF doses according to the following formula: […]
where y is the normalized data-point, x is the raw data point, A is the mean HGF at 1 ng/mL, and B is the mean HGF at 10 ng/mL.

[2] = Parallel artificial membrane permeability assay (PAMPA); format: in vitro ADME; conditions: PBS, room temperature for 5 hours, 200 uM in donor well
Procedure: Bioavailable drugs must permeate the cellular membranes of the lining of the digestive tract. To estimate the penetrability of exemplary compounds, the in vitro parallel artificial membrane permeability assay (PAMPA) was utilized.
Test compounds must have a standard curve in the final read plate to determine partitioned concentration of each drug. A 6-point standard curve was prepared for each compound from 0 to 200 μM in phosphate-buffered saline (PBS).
Test compound solution (300 μL in PBS) was added to the donor (bottom) well of the PAMPA plate in 5 replicates and PBS vehicle (200 μL) was added to the acceptor (top) wells of appropriate wells to match the loading of the donor plate. The bottom and top of the PAMPA plates were then sandwiched together. The PAMPA plates were then incubated at room temperature for 5 hours. After incubation, 150 μL of donor solution was added to a UV compatible plate containing the corresponding standard curve. 150 μL of acceptor well solution was added adjacent to the corresponding standard curve and donor well samples for that compound. The plate was then read using a UV plate reader.
Permeability and membrane retention were then calculated based on the following formulas:
where: • A=filter area (0.3 cm^2); • VD=donor well volume (0.3 mL); • VA=acceptor well volume (0.2 mL); • t=incubation time (seconds); • CA(t)=compound concentration in acceptor well at time t; • CD(t)=compound concentration in donor well at time t; and
where: • CD(t), VD, CA(t), and VA are as defined for equation 1, and • C0=initial concentration in donor well (200 uM).

MDCK cells = assay: Cell scattering behavior assay; format: cell-based; set-up: key: − indicates that the compound failed to significantly promote cell scattering behavior; + indicates maximum potency at or above 100 nM; ++ indicates maximum potency at or above 10 nM; +++ indicates maximum potency at or above 1 nM; ++++ indicates maximum potency at or above 0.1 nM; conditions: with 5 ng/mL HGF, 24 hours, normalized particle count compared to HGF treatment alone
Procedure: MDCK cells were grown under normal conditions and observed to spontaneously form tight colonies as they proliferate. MDCK cells respond to HGF treatment by moving away from each other (scattering), which is quantified to assess the amount of HGF/MET activation in the cell population. In this experiment, MDCK cells were plated in a 96-well format, treated with HGF and exemplary compounds, fluorescently stained, imaged in large fields, and scattering behavior was quantified. Quantification was determined by analyzing the number of continuous groups of cells compared to the total stained area imaged (normalized particle counts).
MDCK cells were plated at low density in black-walled imaging plates and allowed to attach overnight at 37° C. and 5% CO2 in DMEM+10% FBS. Cells were then starved to 2 hours in DMEM without FBS (“starve media”). Samples containing exemplary compounds were prepared in DMEM without FBS and included 5 ng/mL HGF protein (“treatment media”). A control curve was also prepared for each plate using HGF concentrations of 0, 5, 10, and 20 ng/mL. Starve media was replaced with treatment media and cells were incubated for 24 hours at 37° C. and 5% CO2.
After incubation, cells were fixed by replacing treatment media with cold ethanol and incubating for 20 minutes at 4° C. Cells were then rehydrated by washing with PBS and then with stain solution (fluorescent wheat germ agglutinin; WGA488 at 20 μg/mL in PBS). Cells were incubated with stain solution 30 minutes at room temperature after which stain solution was replaced with fresh PBS.
Fields of cells were imaged using an iCyte high content imager in the green wavelength. Images were converted to binary and analyzed for particle size and particle count. For the purpose of analysis, an individual cell touching no other cells or separated colonies of cells were identified as particles, and particle counts were normalized by the total signal area to account for differences in cell number. […] Compound potency was assessed by statistical increase in normalized particle count compared to HGF treatment alone.

[3] = In vivo tissue distribution; set-up: species or system Sprague-dawley rats; conditions: rat, 10 minutes post administration
Procedure: The rate of distribution to target tissues is an important feature of therapeutic molecules. Tissue distribution of exemplary compounds was performed in mixed-sex Sprague-dawley rats. Test compounds were delivered via tail vein injection (IV) and tissues were collected at Tmax (10 minutes post administration). Animals were deeply anesthetized with isoflurane and whole blood was collected from the right atrium and processed by centrifugation to produce plasma. Animals were then fully perfused with PBS administered to the left ventricle to prevent blood contamination of tissues.
Tissues were collected and homogenized, and compound content in the target tissue was quantified by LC-MS/MS. Tissue distribution rates were determined by dividing the tissue concentration of compound by the plasma concentration and multiplying by 100.

[4] = In vitro stability in rat plasma; format: in vitro ADME; conditions: 5 μM, 37° C.
Procedure: (§1) Bioavailability can be estimated by compound stability when exposed to conditions in the body. As an initial assessment of stability properties in a variety of conditions present in animals, exemplary compounds were tested for stability in a battery of simulated body compartments. Compounds were tested for stability in the following solutions: simulated gastric fluid (SGF: 34.2 mM NaCl, pH 1.2), simulated gastric fluid with the digestive enzyme pepsin (SGF+Enzyme: SGF with 3.2 mg/ml pepsin), simulated intestinal fluid with the mixture of enzymes in porcine pancreatin (SIF+Enzyme: 28.7 mM NaH2PO4, 105.7 mM NaCl, pH 6.8, 10 mg/ml pancreatin), rat plasma, and human plasma.
(§2) Test compounds were incubated at a final concentration of 5 μM in the above solutions at 37° C. with samples removed at the following time points: 0, 1, 2, and 4 hours. Reactions were stopped and prepared for quantification by addition of excess quench solution containing an internal standard (acetonitrile, 200 ng/mL bucetin). Test compound and internal standard in each sample was quantified by LC-MS/MS, and after internal normalization to bucetin, test compound concentration was expressed as a percentage of concentration at the 0-hour time point. Stability in the relevant test solution was then determined by the percent remaining at the 4-hour time point.

[5] = In vitro stability in simulated gastric and intestinal fluids; format: in vitro ADME; conditions: 37° C.
Procedure: as §1, §2

[6] = In vitro stability in human plasma; format: in vitro ADME; conditions: 5 μM, 37° C.
Procedure: as §1, §2

[7] = tested on: hepatocyte (HepG2) cell cultures; assay: Cytotoxicity assay (LDH release); format: cell-based; conditions: HepG2 cells, 48 hours, 0.1 to 100 μM
Procedure: This experiment was designed to obtain a preliminary assessment of cytotoxicity.
HepG2 cells were plated in 96-well cell culture plates and allowed to attach overnight at 37° C., 5% CO2 in EMEM+10% FBS. Treatments were made in complete media (EMEM+10% FBS) and included a dilution series of test compounds from 0.1 to 100 μM. Known cytotoxin cerivastatin was used as a positive assay control and prepared at a final concentration of 0.5 μM.
Growth media was replaced with treatment media (EMEM+10% FBS containing test compound dissolved in DMSO) and cells were incubated with test compounds for 48 hours. At the end of the incubation period, supernatant media from each well was transferred to a new plate and LDH assay working solution was added. LDH assay solution undergoes a colorimetric reaction in proportion to the amount of lactate dehydrogenase (an intracellular protein that was only found in the media in the presence of lysed cells) in the media. Color reaction was quantified by measurement of absorbance at a wavelength of 490 nm.
The signal range of the assay was determined by no manipulation in a negative control treatment and full lysis of all cells in a lysis control sample. Compounds that increase the level of cytotoxicity more than 20% above negative control samples were considered cytotoxic in this assay.

Compound: CC1C(=O)N(CCC(F)(F)F)CC2N(Cc3ccc(OC(F)F)cc3)CCC(=O)N12 (stereo not drawn) [Compound 52]
solubility at 2 h [1]: > 100 µM
Potency (HGF/MET system): −

Compound: CC1C(=O)N(CCCC(F)(F)F)CC2N(Cc3ccc(OC(F)F)cc3)CCC(=O)N12 (stereo not drawn) [Compound 37]
solubility at 2 h [1]: > 300 µM
Potency (HGF/MET system): −

Compound: CC1C(=O)N(CC2CCC2)CC2N(C(=O)c3ccc(OC(F)F)cc3)CCC(=O)N12 (stereo not drawn) [Compound 14]
Tissue Distribution (% Plasma exposure at 10 min post IV dose) Brain ([3]; brain): ++ (++ indicates distribution between 5 and 39%)
Tissue Distribution (% Plasma exposure at 10 min post IV dose) Cerebellum ([3]; cerebellum): ++ (++ indicates distribution between 5 and 39%)
Tissue Distribution (% Plasma exposure at 10 min post IV dose) Cortex ([3]; cortex): ++ (++ indicates distribution between 5 and 39%)
Tissue Distribution (% Plasma exposure at 10 min post IV dose) Hippocampus ([3]; hippocampus): ++ (++ indicates distribution between 5 and 39%)
Tissue Distribution (% Plasma exposure at 10 min post IV dose) Sciatic Nerve ([3]; sciatic nerve): ++ (++ indicates distribution between 5 and 39%)
Rat Plasma, compound remaining after 4 hours [4]: +++ (+++ indicates 80-99% compound remaining after 4 hours)
SGF, compound remaining after 4 hours ([5]; simulated gastric fluid pH 1.2, 5 μM): ++ (++ indicates 40-79% compound remaining after 4 hours)
SGF + Enz, compound remaining after 4 hours ([5]; simulated gastric fluid with 3.2 mg/ml pepsin, 5 μM): ++ (++ indicates 40-79% compound remaining after 4 hours)
SIF, compound remaining after 4 hours ([5]; simulated intestinal fluid pH 6.8 with 10 mg/ml pancreatin, 5 μM): +++ (+++ indicates 80-99% compound remaining after 4 hours)
Papp at 5 h, 200 uM [2]: > 2 ×10⁻⁶ cm/s
Human Plasma, compound remaining after 4 hours [6]: +++ (+++ indicates 80-99% compound remaining after 4 hours)
Cytotoxicity [7]: ++++ (++++ indicates non-toxic at 100 μM)
Potency (HGF/MET system): ++++ (++++ indicates maximum potency at or above 0.1 nM)

Compound: CC1C(=O)N(CCC2CCCC2)CC2N(Cc3ccc(C(F)(F)F)c(Cl)c3)CCC(=O)N12 (stereo not drawn) [Compound 54]
Papp at 5 h, 200 uM [2]: < 2 ×10⁻⁶ cm/s
Cytotoxicity [7]: +++ (+++ indicates non-toxic at 10 μM)
Potency (HGF/MET system): −
Potency (MDCK cells): −

Compound: CCC(C)N1CC2N(Cc3ccc(O)cc3)CCC(=O)N2CC1=O (stereo not drawn) [Compound 9]
Papp at 5 h, 200 uM [2]: > 2 ×10⁻⁶ cm/s
Cytotoxicity [7]: ++++ (++++ indicates non-toxic at 100 μM)
Potency (HGF/MET system): −
Potency (MDCK cells): −

The next lines start with results.

solubility at 2 h [1]: > 300 µM
Papp at 5 h, 200 uM [2]: < 2 ×10⁻⁶ cm/s
Compound: CCC(C)CN1CC2N(Cc3ccc(O)cc3)CCC(=O)N2[C@@H](C)C1=O (stereo partly drawn) [Compound 3a]
Potency (HGF/MET system): −
Potency (MDCK cells): −

Papp at 5 h, 200 uM [2]: > 10 ×10⁻⁶ cm/s
Compound: CCC(C)CN1CC2N(C(=O)c3ccc(O)nc3)CCC(=O)N2[C@@H](C)C1=O (stereo partly drawn) [Compound 4a]
Cytotoxicity [7]: ++++ (++++ indicates non-toxic at 100 μM)
Potency (HGF/MET system): + (+ indicates maximum potency at or above 100 nM)
Potency (MDCK cells): + (+ indicates maximum potency at or above 100 nM)
